Experimental data reported in US20220364056A1, “SHORT-CHAIN FATTY ACID PENTANOATE AS ENHANCER FOR CELLULAR THERAPY AND ANTI-TUMOR THERAPY” (PHILIPPS-UNIVERSITÄT MARBURG, priority 2019, published 2022).

Legend:
STAT5 = assay: IL-2-induced phosphorylation of STAT5 in CTLs, flow cytometry; assay type: cell-based, murine; settings: CTLs generated with pentanoate 3 day, IL-2 50 U/ml
Source text: (A) experimental setup for investigating CTL persistence in vivo is shown. (B-D) The frequency (B, C) and total cell numbers (D) of transferred T cells (WT CD45.1^+ CTLs, WT CD45.2^+ pentanoate-treated CTLs and Foxp3^+CD45.2^+ Tregs from FIR×tiger mice) in Rag1-deficient mice on days 15 after the adoptive transfer are shown. The co-transferred Foxp3^−CD4^+ cells were excluded from the gate (B, C). In D, n=_3 mice/group/experiment, data from 2 pooled independent experiments are shown. (E) The CFSE label of transferred T cells (WT CD45.1 CTLs, WT CD45.2^+ pentanoate-treated CTLs and CD45.2^+CD4^+ T cells) in Rag1-deficient mice on days 4 after the adoptive transfer are shown (n=3 mice/group/experiment, data pooled from 2 independent experiments are shown). […] (G and H) Frequencies and cell numbers of CD25^+ CD8^+ T cells were analysed by flow cytometry on day 15 after transfer of control CTLs (CD45.1^+) and pentanoate-treated CTLs (CD45.2^+) into Rag1-deficient mice (n=3 mice/group/experiment, data pooled from 2 independent experiments). […] The phosphorylated (p)-STAT5 levels were analysed by flow cytometry (n=5, performed in 3 independent experiments). (J) The secretion of IL-2 in pentanoate-treated CTLs cultured for indicated time points was measured by ELISA (n=4, pooled from 2 independent experiments).

Tc9 and Tc17 cells = assay: CD8+ T cells polarized under Tc17- or Tc9-inducing conditions; assay type: cell-based, murine; settings: 3 days
Procedure: (A and B) CD8^+ T cells isolated from spleens and LNs were polarized under Tc17-inducing conditions and treated with pentanoate for 3 days. Representative contour plots (A) and bar graphs (B) indicate the frequency of IL-17^+ and IFN-γ+ cells. Three similar experiments were performed. (C and D) CD8^+ T cells isolated from spleens and LNs were polarized under Tc9-inducing conditions and treated with pentanoate for 3 days. Representative contour plots (C) and bar graphs (D) are showing the frequency of IL-9^+ and IFN-γ+ cells. Three similar experiments were performed. (E and F) The expression of granzyme B, IFN-γ and Eomes in pentanoate-treated human CTLs was analysed by flow cytometry. Five independent experiments were performed (E). For Eomes, mean fluorescence intensity (MFI) values are shown (F, n=3).

[1] = system: CD8+ cytotoxic T lymphocytes (CTLs); assay: murine CTLs cultivated under suboptimal conditions with SCFAs; cytokines and effector molecules by flow cytometry and ELISA; assay type: cell-based
Source text: It is known that the glycolytic metabolic pathway promotes IFN-γ expression and T cell effector function. […] We next investigated if acetylation of H4 was increased at CTL-characteristic loci (Ifnγ, Tbx21 and Eomes) after treatment of CTLs with pentanoate. […] Due to the high level of heterogeneity and plasticity within T lymphocytes, we next investigated possible effects of pentanoate on other CD8^+ T cell subtypes. […] To gain further insight into possible therapeutic strategies, we next investigated the impact of pentanoate on human CD8^+ T lymphocytes.
(A) Experimental design for the treatment of CTLs with the water-soluble fraction of intestinal content derived from SPF or GF mice. (B and C) Frequencies of IFN-γ- and TNF-α-producing CTLs treated with the extract from luminal content derived from indicated organs. Representative results of two experiments are shown (n=3). (D) ELISA was performed to measure the secretion of TNF-α by CLTs treated as shown in (A). (E) Quantitative measurement of total SCFA amounts in fecal samples of SPF and GF mice (n=5). (F and G) The percentage of IFN-γ^+ TNF-α^+ CTLs treated with the indicated SCFAs for three days (n=3, one of three independent experiments is shown). (H) The secretion of TNF-α from CTLs treated with SCFAs was determined by ELISA (n=3, one of two independent experiments is shown). (I) The fluorogenic HDAC assay was applied to measure the HDAC inhibitory activity of SCFAs on CTLs. The value for unstimulated CTLs was arbitrarily set to 1.0. Four independent experiments were performed. (J and K) Representative contour plots (J) and bar graphs (K) showing the frequency of IFN-γ+ and TNF-α+ cells after pentanoate (2 mM) or VPA (0.5 mM) administration. Three similar experiments were performed. (L and M) The frequency of Eomes- and T-bet-expressing CTLs treated with pentanoate (2 mM) or VPA (0.5 mM) for three days was analyzed by flow cytometry (n=4). (N) ChIP assay showing the acetylation of histone H4 at the promoter regions of Ifnγ and Eomes genes after 24 hours of treatment of CTLs with pentanoate. Data are from pooled chromatin of three mice.
Representative histogram plots (A) and bar graphs (B) are showing the frequency of Annexin V^+ cells. Three similar experiments were performed. (C) Representative effector molecule staining of CD8^+ T cells polarized under suboptimal CTL-inducing conditions, treated with pentanoate or TSA (10 nM Sigma-Aldrich) in presence of 2-DG (1 mM, Sigma-Aldrich) or rapamycin (100 nM, Sigma-Aldrich) for 3 days. Three independent experiments were performed. (D) Western blot analysis of H3Ac and H4Ac in CD8^+ T cells treated with SCFAs for 3 days. (E) Pan-H4Ac ChIP qPCR analysis for Tbx21 promoter accessibility in pentanoate-treated CTLs. Data are from pooled chromatin of three mice. (F and G) CD8^+ T cells isolated from WT and Tbx21^−/− mice were polarized under suboptimal CTL-inducing conditions in presence of increasing pentanoate concentrations. Representative contour plots (F) and bar graphs (G) show the frequency of IFN-γ+ and IL-17A^+ cells. Two similar experiments were performed. […]

`CCCCC(=O)O` [pentanoate] was tested, and the “STAT5 activity in response to IL-2” value (STAT5) was “stronger STAT5 activity”, the “phenotype of Tc9 and Tc17 cells” value (Tc9 and Tc17 cells) was “phenotypical switch towards IFN-γ-producing CTLs” and the “frequencies of TNF-α+ IFN-γ+ cells” value ([1]; CTLs, suboptimal conditions, SCFAs for three days) was “substantial increase”. The “secretion of TNF-α by CTLs” value ([1]; ELISA, CTLs treated with SCFAs) was “substantial increase”, the “secretion of IL-2 by CTLs” value ([1]; ELISA, indicated time points) was “robustly produced IL-2 in a prolonged manner” and the “production of IFN-γ by T-bet-deficient CTLs” value ([1]; Tbx21-/- vs WT, increasing pentanoate concentrations) was “partially defective production”. For the same compound, the “expression of TNF-α and IFN-γ in CTLs” value ([1]; pentanoate 2 mM or VPA 0.5 mM) was “potently enhanced”, the “CTL-related transcription factors T-bet and Eomes in CD8+ T cells” value ([1]; pentanoate 2 mM or VPA 0.5 mM, three days) was “strongly induced” and the “reversal of the effect on granzyme B+IFN-γ+ cells by rapamycin” value ([1]; rapamycin 100 nM co-treatment) was “could not be reversed”. The “percentage of CD25+IFN-γ+ cells in in vitro generated CTLs” value ([1]; three days) was “strongly enhanced” and the “percentages of granzyme B+IFN-γ+ CD8+ T cells” value ([1]; vs control CTLs, TSA 10 nM, 3 days) was “substantially enhanced”.
